One compound from US11045435B2, “Methods for treating ocular diseases” (NATUREWISE BIOTECH & MEDICALS CORPORATION, priority 2016, dated 2021) can be followed below.

The subject of data set [1] is ARPE-19 cells. Nature of the data set: MTT viability / proliferation of ARPE-19 cells. It counts as cell-based, human. The settings on record: 72 h. Here is the method:
(§1) ARPE-19 cells were grown in DMEM/F12 medium supplemented with 10% FBS, 100 units/ml penicillin G, and 100 μg/ml streptomycin sulfate. HUVECs were grown in vascular cell basal medium supplemented with endothelial cell growth kit. Cells were incubated in a humidified incubator at 37° C. under 5% CO2 and 95% air.
(§2) MTT assay was used to measure the viability of ARPE-19 cells and HUVECs. 2×10^5 ARPE-19 cells or 5×10^4 HUVECs were seeded in 96-well plates ([…]) and allowed to grow overnight. Negative control was prepared by adding 100 μl medium without cells. The cells were then treated with fresh medium with COMPOUND I (0.03, 0.1, 0.3, 1, 3 and 10 μg/ml) and/or oxidants (NaIO3, H2O2, t-BHP and NaN3) for 12, 24, or 72 hours (200 μl/well). The vehicle control group was treated with vehicle. 20 μl MTT (5 mg/ml) was added to wells, and incubated for another 4 h. After incubation, the medium was discarded and 100 μl DMSO was added to solubilize formazan produced from MTT by the viable cells. Absorbance was measured at 570 nm using a microplate reader (Bio-Rad Laboratories, Inc., CA). Cells viability was calculated according to the following formula: Viability of cells (%)=(absorbance in tested sample−absorbance in negative control)/(absorbance in vehicle control−absorbance in negative control)×100%.

The nature of data set [2]: Hypoxia-induced injury in HUVECs (MTT). The settings on record: human, 1% O2, read-out: decrease of viability in hypoxic condition. The format is cell-based. How it is done:
as §2
Cells were allowed to attach overnight, and then exposed to COMPOUND I or vehicle under hypoxic condition for 72 h. Hypoxic conditions (1% O2, 5% CO2 and 94% N2) were maintained by using a temperature and humidity controlled environmental C-chamber by O2 and CO2 controllers (Proox Model 110 and Pro CO2 model 120, Biospherix Ltd., Redfield, N.Y., USA) with N2 and CO2 gas sources.

The test system of data set [3] is ARPE-19 cells. In words: NaN3-induced injury in ARPE-19 cells (MTT). The format is cell-based, human. The settings on record: 72 h. Here is the method:
as §2

Data set [4] has as its system ARPE-19 cells. Nature of the data set: NaIO3-induced injury in ARPE-19 cells (MTT). It counts as cell-based, human. The settings on record: 10 μg/ml; 72 h. How it is done:
as §2

Another data set relates to mouse model of CNV. In words: Laser-induced CNV mouse model (FP, FFA, OCT). The format is in vivo, C57BL/6J mice. How it is done:
Male C57BL/6J mice (BioLASCO Taiwan Co.) were maintained within the Animal Center at Taipei Medical University (TMU) and the CNV study was performed in accordance with ARVO statement and the experimental protocols were approved by the Institutional Animal Care and Use Committee of TMU (LAC-2017-0130). To create CNV, mice were anesthetized by injection of Balanzine (10% xylazine) (10 mg/kg) and Ketamine (80 mg/kg). The rupture of Bruch's membrane-choroid was achieved by laser photocoagulation (Micron III system, Phoenix Research Laboratories, Pleasanton, Calif.) using CNV laser burns of four spots (0.1-second duration, 250 mW) approximately two disc-diameters away from the optic disc. […]
The OCT module of the Micron III (Phoenix Research Laboratories, Pleasanton, Calif.) retinal imaging microscope was used to obtain images from retinal layers. […] Three retinal layers were defined and measured in the C57BL/6 mice included in this study: the inner layer, which comprises the retinal nerve fiber layer (RNFL), the ganglion cell layer (GCL), and the inner plexiform layer (IPL); the middle layer, which comprises the inner nuclear layer (INL), the outer plexiform layer (OPL), the outer nuclear layer (ONL), and the outer limiting membrane (OLM); and the outer layer, which comprises the inner and outer segments (IS/OS) of the photoreceptors and the retinal pigment epithelium.

Data set [5] has as its system HUVECs. In words: MTT viability / proliferation of HUVECs. The settings on record: 72 h. The format is cell-based, human. Here is the method: as §1, §2
In data set [6] the test system is HUVECs. In words: NaIO3-induced injury in HUVECs (MTT). The format is cell-based, human. The settings on record: 72 h. How it is done:
as §2

With `COc1ccc(COc2c(/C=C/C(=O)NO)ccc(OC)c2CC=C(C)C)cc1` [COMPOUND I], the “effect on cell growth” value with ARPE-19 cells [1] (0.03 μg/ml to 1 μg/ml) and in the data set with HUVECs [5] (0.03 μg/ml to 1 μg/ml) was “did not affect cell growth” in each case. Moreover, the inhibition (as a rule, the percentage by which the read-out fell short of the control) at 10 µg/mL in the data set on ARPE-19 cells [1] (Homo sapiens, ARPE-19, 10 μg/ml) worked out at 36%; with HUVECs [5] (Homo sapiens, HUVEC, 10 μg/ml), 47%. Besides, the cytotoxicity at 72 h, 10 μg/ml in data set [2] came to 98%. Also, the “effect on NaN3-induced injury” value in the data set on ARPE-19 cells [3] is on record as “significantly reversed”. The “effect on viability in NaIO3-induced injury” value in the data set with ARPE-19 cells [4] and in the data set with HUVECs [6] (10 μg/ml) was “significantly enhanced the viability” in each case. In addition, the “leaky area (FFA)” value with mouse model of CNV (25 mg/kg/d oral for 7 or 28 days) was “significantly reduced”. In addition, the “tissue hyperplasia resulted from laser damage” value with mouse model of CNV (25 mg/kg/d oral, day 7 and day 28) is listed as “ameliorated”. In the data set with HUVECs [6] (0.03 μg/ml to 1 μg/ml, 300 μg/ml NaIO3), the “effect on 300 μg/ml NaIO3-induced injury” value is listed as “reversed”.
